Reference: PubChem BioAssay (NCI)
Several values for one entry are separate records, joined by “and”; a condition that tells them apart may be missing. Equal entries are not always repeated.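 Dose response: 5 concentrations. Exposure: 48 h. Format: 96-well plates. Endpoint: linear interpolation; highest concentration if not reached. The concentration for 50% growth inhibition is given as GI50. TGI marks complete inhibition of growth.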

How the values were obtained:
Test in all cases: growth of human tumour cells (NCI), 48 h
NCI/ADR-RES ovarian = system: NCI/ADR-RES ovarian
IGROV1 ovarian = system: IGROV1 ovarian
RPMI-8226 leukemia = system: RPMI-8226 leukemia
MDA-MB-231 breast = system: MDA-MB-231 breast
ACHN renal = system: ACHN renal
HT29 colon = system: HT29 colon
KM12 colon = system: KM12 colon
UACC-257 melanoma = system: UACC-257 melanoma
UO-31 renal = system: UO-31 renal
MCF7 breast = system: MCF7 breast
EKVX NSCLC = system: EKVX NSCLC
HCT-116 colon = system: HCT-116 colon
NCI-H23 lung = system: NCI-H23 lung
BT-549 breast = system: BT-549 breast
786-0 renal = system: 786-0 renal
RXF 393 renal = system: RXF 393 renal
HOP-92 NSCLC = system: HOP-92 NSCLC
SF-295 CNS = system: SF-295 CNS
UACC-62 melanoma = system: UACC-62 melanoma
SK-MEL-5 melanoma = system: SK-MEL-5 melanoma
NCI-H226 lung = system: NCI-H226 lung
NCI-H460 lung = system: NCI-H460 lung
MOLT-4 leukemia = system: MOLT-4 leukemia
HOP-62 NSCLC = system: HOP-62 NSCLC
COLO 205 colon = system: COLO 205 colon
OVCAR-3 ovarian = system: OVCAR-3 ovarian
OVCAR-8 ovarian = system: OVCAR-8 ovarian
CCRF-CEM leukemia = system: CCRF-CEM leukemia

CC1(C)CCC2=C(O1)c1ccccc1C(=O)C2=O
GI50 (NCI/ADR-RES ovarian): 445 nM and 481 nM
TGI (NCI/ADR-RES ovarian): 2690 nM and 1800 nM
GI50 (IGROV1 ovarian): 1800 nM and 1780 nM
TGI (IGROV1 ovarian): 3550 nM and 3390 nM
GI50 (RPMI-8226 leukemia): 1460 nM
TGI (RPMI-8226 leukemia): 5760 nM and 1480 nM
GI50 (MDA-MB-231 breast): 2010 nM
TGI (MDA-MB-231 breast): 5550 nM and 1670 nM
GI50 (ACHN renal): 1620 nM and 1020 nM
TGI (ACHN renal): 2970 nM and 2180 nM
GI50 (HT29 colon): 3430 nM
TGI (HT29 colon): > 100000 nM
GI50 (KM12 colon): 1700 nM
TGI (KM12 colon): 3380 nM and 2130 nM
GI50 (UACC-257 melanoma): 1560 nM
TGI (UACC-257 melanoma): 3050 nM and 429 nM
GI50 (UO-31 renal): 1540 nM and 1050 nM
TGI (UO-31 renal): 2890 nM and 2230 nM
GI50 (MCF7 breast): 1530 nM
TGI (MCF7 breast): 3600 nM and 1050 nM
TGI (EKVX NSCLC): 3780 nM and 3590 nM
GI50 (HCT-116 colon): 511 nM
TGI (HCT-116 colon): 2010 nM and 738 nM
GI50 (NCI-H23 lung): 1570 nM
TGI (NCI-H23 lung): 3910 nM and 1090 nM
GI50 (BT-549 breast): 1510 nM
TGI (BT-549 breast): 2920 nM and 1740 nM
GI50 (786-0 renal): 1990 nM
TGI (786-0 renal): 3940 nM and 2680 nM
GI50 (RXF 393 renal): 1660 nM
TGI (RXF 393 renal): 3040 nM and 2940 nM
GI50 (HOP-92 NSCLC): 1720 nM
TGI (HOP-92 NSCLC): 3330 nM and 10400 nM
GI50 (SF-295 CNS): 1670 nM
TGI (SF-295 CNS): 3100 nM and 1680 nM
GI50 (UACC-62 melanoma): 1790 nM
TGI (UACC-62 melanoma): 3300 nM and 957 nM
GI50 (SK-MEL-5 melanoma): 1010 nM
TGI (SK-MEL-5 melanoma): 2190 nM and 714 nM
GI50 (NCI-H226 lung): 1840 nM
TGI (NCI-H226 lung): 3770 nM and 2890 nM
GI50 (NCI-H460 lung): 1880 nM and 323 nM
TGI (NCI-H460 lung): 3690 nM and 1150 nM
GI50 (MOLT-4 leukemia): 2670 nM
TGI (MOLT-4 leukemia): 7920 nM
GI50 (HOP-62 NSCLC): 1820 nM
TGI (HOP-62 NSCLC): 4140 nM and 1480 nM
TGI (COLO 205 colon): 3630 nM
GI50 (OVCAR-3 ovarian): 1310 nM
TGI (OVCAR-3 ovarian): 2900 nM and 698 nM
GI50 (OVCAR-8 ovarian): 530 nM
TGI (OVCAR-8 ovarian): 2270 nM and 1590 nM
GI50 (CCRF-CEM leukemia): 3300 nM
TGI (CCRF-CEM leukemia): > 100000 nM
